Data set [1] deals with T1, E3 ubiquitin-protein ligase TRIM58 (Homo sapiens, UniProt Q8NG06).
T1 sequence (Q8NG06 whole entry): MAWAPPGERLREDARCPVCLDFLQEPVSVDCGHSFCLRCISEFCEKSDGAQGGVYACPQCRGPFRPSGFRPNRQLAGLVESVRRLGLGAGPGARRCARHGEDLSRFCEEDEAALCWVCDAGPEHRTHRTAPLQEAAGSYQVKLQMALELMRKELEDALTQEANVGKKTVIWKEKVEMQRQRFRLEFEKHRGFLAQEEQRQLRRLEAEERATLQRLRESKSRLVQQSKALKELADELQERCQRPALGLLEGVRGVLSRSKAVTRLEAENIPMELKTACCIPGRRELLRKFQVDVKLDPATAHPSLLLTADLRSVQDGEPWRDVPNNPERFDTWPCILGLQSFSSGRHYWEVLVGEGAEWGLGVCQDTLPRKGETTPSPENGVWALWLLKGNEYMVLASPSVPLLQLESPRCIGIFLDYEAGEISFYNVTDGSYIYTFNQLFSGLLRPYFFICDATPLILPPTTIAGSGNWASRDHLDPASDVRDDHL
Briefly: Displacement of Ac-DKSDLKAELERKK-C(BODIPY-FL-M)-RLAQIREEKKRKEE-NH2 peptide probe from TRIM58 (279 to 466 residue) (unknown origin) preincubated for 30 mins followed by probe addition by fluorescence polarization method.

Data set [2] can be described thus: Apparent permeability across apical to basolateral side in low efflux MDCK cells. The class given is ADME, cell-based, Canis lupus familiaris. Conditions: dog.
The nature of data set [3]: Solubility of the compound at pH 6.8 by high-throughput equilibrium solubility assay. Type of data set: physicochemical. The note with it: buffer.
Data set [4] in a line: Lipophilicity, log D of the compound in octanol/buffer system at pH 7.4 by shake-flask based LC/MSMS analysis. Type of data set: physicochemical.
In data set [5] the target is T1, E3 ubiquitin-protein ligase TRIM58. Kind of data set: Binding affinity against N-terminal 6His-tagged TRIM58 (251 to 466 residue) (unknown origin) expressed in Escherichia coli BL21 (DE3) by SPR assay. (In general: In SPR one partner is held on a chip, and binding of the other changes the refractive index at the surface.)

SMILES strings stand for the structures. In brackets after ≈: the same amount, converted by molar mass.

This note sets out measurements from ChEMBL document CHEMBL5390305, “Discovery of Ligands for TRIM58, a Novel Tissue-Selective E3 Ligase” (ACS Med Chem Lett, 2023).

In general, EC50 refers to the midpoint of the concentration-response curve. Take `c1ccc2cc(-c3nn[nH]n3)c(NCC3CCNCC3)cc2c1`: the EC50 in data set [1] was greater than 100 µM.

A word on the Papp A→B: it is how fast a substance crosses the layer from the apical side. In general, thermodynamic solubility refers to solubility found after equilibrating the solid with the medium. In the case of `CNc1nc(NCC2CCNCC2)c2cc(-c3ccccc3)ccc2n1`, the EC50 in data set [1] stood at 12 µM. Besides, the Papp A→B in data set [2] was 1.6 ×10⁻⁶ cm/s. This molecule showed a thermodynamic solubility in data set [3] of 80 µM (≈ 27.8 µg/mL).

In general, logD refers to the decadic logarithm of the distribution of all forms, ionised or not, between an organic phase and buffer at a given pH. Read a low logD as lower lipophilicity. On to `CNc1nc(NC)c2cc(-c3ccccc3)ccc2n1`, for which it took 75 µM to reach a half-maximal effect in data set [1] (EC50). In data set [4], this molecule registered a logD of 1.7. Further, the thermodynamic solubility in data set [3] worked out at 100 µM (≈ 26.4 µg/mL).

Turning to `CNCCCNc1nc(NCC2CCNCC2)c2cc(-c3ccccc3)ccc2n1`, the EC50 in data set [1] is greater than 100 µM. Further, the logD in data set [4] worked out at 1.2. Further, the Papp A→B in data set [2] was 0.6 ×10⁻⁶ cm/s. The molecule further gave a solubility (thermodynamic) in data set [3] greater than 750 µM.

Usually Kd stands for the concentration at which binding is half-saturated. High values mean weaker binding, low ones tighter binding. For `CN(C)CCCNc1nc(NCC2CCNCC2)c2cc(-c3ccccc3)ccc2n1`, the EC50 in data set [1] turned out to be 5.3 µM. Besides, in data set [4], the logD is less than -1. This molecule also registered a thermodynamic solubility in data set [3] greater than 1000 µM. The molecule further had an equilibrium dissociation constant (Kd) in data set [5] of 24 µM.

Take `c1ccc(-c2ccc3nc(NCC4CC4)nc(NCC4CCNCC4)c3c2)cc1`: the EC50 in data set [1] came out at 8.6 µM. In data set [4], this molecule yielded a logD of 1.1. For the same molecule, in data set [2], the Papp A→B came out at 3.5 ×10⁻⁶ cm/s. This molecule also displayed a thermodynamic solubility in data set [3] of 20 µM (≈ 7.75 µg/mL).

In the case of `CNc1nc(NCC2CCNCC2)c2cc(C3CCCCC3)ccc2n1`, the response in data set [1] was half-maximal at 6.6 µM (EC50). The logD in data set [4] is 0.5. In addition, the Papp A→B in data set [2] amounted to 1.1 ×10⁻⁶ cm/s. The solubility (thermodynamic) in data set [3] is greater than 750 µM.

Molecule `CN(C)CCCNc1nc(NCCc2ccccc2)c2cc(-c3ccccc3)ccc2n1` registered an EC50 in data set [1] of 12.7 µM. The logD in data set [4] was 3.3. Further, in data set [2], the Papp A→B came to 24 ×10⁻⁶ cm/s. For the same molecule, the thermodynamic solubility in data set [3] came to 40 µM (≈ 17 µg/mL).

In the case of `CNc1nc(NCC2CCNCC2)c2ccccc2n1`, the EC50 in data set [1] is greater than 100 µM. This molecule also had a logD in data set [4] of -0.8. Further, the apical-to-basolateral permeability (Papp A→B) in data set [2] stood at 1.6 ×10⁻⁶ cm/s. In data set [3], this molecule came in with a solubility (thermodynamic) greater than 750 µM.

Turning to `CCCCCCNc1nc(NCCCN(C)C)nc2ccc(-c3ccccc3)cc12`, a half-maximal response in data set [1] (EC50) required 7.4 µM. Besides, in data set [4], the logD is 4. The Papp A→B in data set [2] worked out at 19 ×10⁻⁶ cm/s. In data set [3], the solubility (thermodynamic) is 60 µM (≈ 24.3 µg/mL).

Take `CNc1nc(OCC2CCNCC2)c2cc(-c3ccccc3)ccc2n1`: in data set [1], the EC50 was 74 µM. Further, in data set [4], the logD was -0.5. The Papp A→B in data set [2] worked out at 29 ×10⁻⁶ cm/s. This molecule also registered a solubility (thermodynamic) in data set [3] greater than 750 µM.
